Measurements taken from DBAASP.
Converted amounts (≈) assume the structure as drawn. Values belong to the compound of their own block, whether it stands above or below them.

Key:
Assay in all cases: ≥ marks a high value that may be exact or a test limit, other limits are often not marked, values filed in µg/mL are converted to µM
[1] = system: Candida albicans NCYC 1467
[2] = system: Escherichia coli NCTC 10418
[3] = system: Staphylococcus aureus NCTC 10788
[4] = system: Bacillus subtilis ATCC 6051
[5] = system: Mycobacterium tuberculosis H37Rv
[6] = system: Enterococcus faecalis ATCC 29212
[7] = system: Escherichia coli ATCC 25922
[8] = system: Staphylococcus aureus ATCC 25923
Streptococcus agalactiae = system: Streptococcus agalactiae
[9] = system: Pseudomonas aeruginosa ATCC 27853

Structure (SMILES): CC(C)C[C@H](NC(=O)[C@H](C)N)C(=O)N[C@@H](Cc1ccc(O)cc1)C(=O)N[C@@H](CCCCN)C(=O)N[C@@H](CCCCN)C(=O)N[C@@H](Cc1ccccc1)C(=O)N[C@@H](CCCCN)C(=O)N[C@@H](CCCCN)C(=O)N[C@@H](CCCCN)C(=O)N[C@@H](CC(C)C)C(=O)N[C@@H](CC(C)C)C(=O)N[C@@H](CCCCN)C(=O)N[C@@H](CO)C(=O)N[C@@H](CC(C)C)C(=O)N[C@@H](CCCCN)C(=O)N[C@@H](CCCN=C(N)N)C(=O)N[C@@H](CC(C)C)C(=O)NCC(=O)O [ALYKKFKKKLLKSLKRLG]
MIC [6]: 8.7 µM (≈ 18.8 µg/mL)
MIC [7]: 8.7 µM (≈ 18.8 µg/mL)
MIC [8]: 69.4 µM (≈ 150 µg/mL)
MIC (Streptococcus agalactiae): 4.3 µM (≈ 9.3 µg/mL)

Structure (SMILES): CC[C@H](C)[C@H](NC(=O)CNC(=O)[C@H](CO)NC(=O)[C@H](CC(C)C)NC(=O)[C@H](CC(C)C)NC(=O)CN)C(=O)N[C@@H](CC(C)C)C(=O)NCC(=O)N[C@@H](C)C(=O)NCC(=O)N[C@@H](CCCCN)C(=O)N[C@@H](CCCCN)C(=O)N[C@H](C(=O)N[C@H](C(=O)O)C(C)C)[C@@H](C)CC [GLLSGILGAGKKIV]
MIC [1]: ≥ 32 µM
MIC [2]: ≥ 64 µM
MIC [3]: ≥ 32 µM

Structure (SMILES): CC[C@H](C)[C@H](NC(=O)[C@H](CCCCN)NC(=O)[C@@H](NC(=O)[C@H](Cc1ccccc1)NC(=O)[C@@H](NC(=O)[C@@H]1CCCN1C(=O)[C@H](CS)NC(=O)[C@H](C)N)[C@@H](C)CC)[C@@H](C)O)C(=O)N[C@@H](CCC(N)=O)C(=O)NCC(=O)N[C@H](C(=O)N[C@@H](CS)C(=O)N[C@@H](Cc1ccc(O)cc1)C(=O)N[C@@H](CCCN=C(N)N)C(=O)NCC(=O)O)[C@@H](C)O [ACPIFTKIQGTCYRG]
MIC [5]: 12.1 µM (≈ 20 µg/mL)

Structure (SMILES): CC[C@H](C)[C@H](NC(=O)[C@H](Cc1c[nH]c2ccccc12)NC(=O)[C@H](Cc1ccccc1)NC(=O)[C@H](CC(C)C)NC(=O)CN)C(=O)N[C@H](C(=O)N[C@@H](CCCCN)C(=O)N[C@@H](CCCCN)C(=O)N[C@H](C(=O)N[C@H](C(=O)NCC(=O)N[C@@H](CCCCN)C(=O)N[C@@H](CC(C)C)C(=O)N[C@@H](CCCN=C(N)N)C(=O)O)[C@@H](C)CC)[C@@H](C)O)[C@@H](C)CC [GLFWIIKKTIGKLR]
MIC [4]: 9.56 µM (≈ 16 µg/mL)
MIC [7]: 9.56 µM (≈ 16 µg/mL)
MIC [9]: 4.78 µM (≈ 8 µg/mL)
MIC [8]: 76.5 µM (≈ 128 µg/mL)

Second part, the compound after the results:

MIC [1]: ≥ 64 µM
MIC [2]: ≥ 32 µM
MIC [3]: ≥ 256 µM
Structure (SMILES): CC[C@H](C)[C@H](NC(=O)[C@H](CC(=O)O)NC(=O)[C@H](CCCCN)NC(=O)[C@H](Cc1c[nH]c2ccccc12)NC(=O)[C@H](CC(C)C)NC(=O)[C@H](C)N)C(=O)N[C@@H](CC(C)C)C(=O)N[C@@H](CCCCN)C(=O)N[C@@H](CC(N)=O)C(=O)N[C@@H](C)C(=O)NCC(=O)N[C@@H](CCCCN)C(=O)N[C@@H](C)C(=O)N[C@@H](C)C(=O)N[C@@H](CC(C)C)C(=O)N[C@@H](CC(N)=O)C(=O)N[C@@H](CCC(=O)O)C(=O)N[C@H](C(=O)N[C@@H](CC(N)=O)C(=O)N[C@@H](CCC(N)=O)C(=O)N[C@H](C(=O)N[C@H](C(=O)N[C@@H](CCC(N)=O)C(N)=O)C(C)C)[C@@H](C)CC)[C@@H](C)CC [ALWKDILKNAGKAALNEINQIVQ]

MIC [4]: ≥ 1000 µM
Structure (SMILES): NCCCC[C@H](NC(=O)[C@H](CCC(=O)O)NC(=O)[C@H](CC(=O)O)NC(=O)[C@H](CCC(=O)O)NC(=O)[C@H](CC(=O)O)NC(=O)[C@H](CCC(=O)O)NC(=O)[C@H](CC(=O)O)NC(=O)[C@H](CCC(N)=O)NC(=O)[C@H](CCCN=C(N)N)NC(=O)[C@@H](N)CO)C(=O)N[C@@H](CCCN=C(N)N)C(=O)N[C@@H](CCCN=C(N)N)C(=O)N1CCC[C@H]1C(=O)N[C@@H](CCCN=C(N)N)C(=O)O [SRQDEDEDEKRRPR]

MIC [5]: ≥ 89.3 µM
Structure (SMILES): CC[C@H](C)[C@H](NC(=O)[C@H](CC(C)C)NC(=O)[C@@H](N)CCCN=C(N)N)C(=O)N[C@@H](CCCN=C(N)N)C(=O)N[C@H](C(=O)N[C@@H](CCC(=O)O)C(=O)N[C@@H](CCCN=C(N)N)C(=O)N[C@@H](CC(=O)O)C(=O)N[C@@H](CO)C(=O)N[C@H](C(=O)N[C@@H](CCC(=O)O)C(=O)N[C@@H](C)C(=O)N[C@@H](CC(C)C)C(=O)N[C@@H](CCSC)C(=O)N[C@@H](CCCN=C(N)N)C(=O)N1CCC[C@H]1C(=O)N[C@H](C(=O)NCC(=O)N[C@@H](CCCCN)C(=O)O)[C@@H](C)CC)C(C)C)C(C)C [RLIRVERDSVEALMRPIGK]
